Target: T1, recombinant IL-8 Rβ, or Type II, receptor (Homo sapiens, UniProt P25025)
T1 sequence (P25025 1-360): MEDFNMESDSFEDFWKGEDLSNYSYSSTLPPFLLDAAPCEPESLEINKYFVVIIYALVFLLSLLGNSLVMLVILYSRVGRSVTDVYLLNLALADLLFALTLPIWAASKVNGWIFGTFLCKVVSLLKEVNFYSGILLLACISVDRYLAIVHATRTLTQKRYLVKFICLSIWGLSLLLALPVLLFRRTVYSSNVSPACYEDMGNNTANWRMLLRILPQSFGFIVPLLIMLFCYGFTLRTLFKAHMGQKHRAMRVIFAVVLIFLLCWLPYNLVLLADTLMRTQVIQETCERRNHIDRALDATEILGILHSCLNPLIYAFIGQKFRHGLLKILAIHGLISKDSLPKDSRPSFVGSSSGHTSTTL
Test: Receptor binding assay, 125I IL-8, IL-8Rβ CHO membranes (permissive model)
Text: [^125 I] IL-8 (human recombinant) was obtained from Amersham Corp., Arlington Heights, Ill., with specific activity 2000 Ci/mmol. Gro-α was obtained from NEN-New England Nuclear. All other chemicals were of analytical grade. High levels of recombinant human IL-8 type α and β receptors were individually expressed in Chinese hamster ovary cells as described previously (Holmes, et al., Science, 1991, 253, 1278). The Chinese hamster ovary membranes were homogenized according to a previously described protocol (Haour, et al., J Biol Chem., 249 pp 2195-2205 (1974)). Except that the homogenization buffer was changed to 10 mM Tris-HCL, 1 mM MgS04, 0.5 mM EDTA (ethylene-diaminetetra-acetic acid), 1 mMPMSF (α-toluenesulphonyl fluoride), 0.5 mg/L Leupeptin, pH 7.5. Membrane protein concentration was determined using Pierce Co. micro-assay kit using bovine serum albumin as a standard. All assays were performed in a 96-well micro plate format. Each reaction mixture contained ^125 I IL-8 (0.25 nM) or ^125 I Gro-α and 0.5 μg/mL of IL-8Rα or 1.0 μg/mL or IL-8Rβ membranes in 20 mM Bis-Trispropane and 0.4 mM Tris HCl buffers, pH 8.0, containing 1.2 mM MgSO4, 0.1 mM EDTA, 25 mM NaCl and 0.03% CHAPS. […] The filter was then dried and counted on the Betaplate liquid scintillation counter. […]

- found to be active at (IL-8 receptor inhibition): about 75 μg/mL
SMILES: Cc1cc(Cl)ccc1NC(=O)Nc1ccccc1C(=O)O [1-(2-Carboxyphenyl)-3-(4-chloro-2-methylphenyl)urea]

Source: patent US6005008A, “IL-8 receptor antagonists” (SmithKline Beecham Corporation, priority 1997, dated 1999)
